Measured values from a melting point compilation (Tetko et al.; mined from patent text by program, amines drawn as free bases though some values may be those of a salt).

Row | SMILES | melting point [°C]
1 | Nc1cccc(-c2ccc(CCN3CCN(C(=O)Nc4ccc(Cl)cc4)CC3)cc2)n1 | 160 to 162
2 | CC(C)(C)c1cc2c(c(-c3nc4ncccc4o3)c1)CCC2 | 198 to 200
3 | CCCCCCCCCCCCCCCCCCNC(=O)c1ccc(OC(C)=O)cc1 | 106
4 | Cc1cc(-c2cccc(C(F)(F)F)c2)c2nc(C(F)(F)F)cnc2c1 | 117 to 118
5 | CC(C)CCCC(C)C1CCC2C3=C(CCC21C)C1(C)CCC(O)CC1CC3=O (stereo unspecified) | 115 to 117
6 | CCCCN1CCCC1CNC(=O)c1cc(Cl)cc2c1SCCN2C (stereo unspecified) | 108 to 109
7 | C=Cc1cc(O)cc2nc(-c3ccc(O)c(F)c3)oc12 | 249 to 251
8 | Cc1cc(CCCOc2c(C)cc(N3COC(CO)=N3)cc2C)on1 | 116 to 117
9 | CC1=C(C(O)c2ccc3c(c2)CCN(C(N)=O)C3)C(C)(C)CC1 (stereo unspecified) | 68.6 to 69.6
10 | CC(C)(C)N1C(=O)C2Cc3[nH]cnc3CN2C1=O (stereo unspecified) | 156 to 158
11 | C=CCSc1nsc(S)n1 | 107 to 108
12 | OCc1cc(CO)c(O)c(-c2ccccc2)c1 | 105 to 110
13 | Cc1cc(C)cc(COC(=O)C(NC(=O)OC(C)(C)C)C(c2ccccc2)c2ccccc2)c1 (stereo unspecified) | 123
14 | CCc1c(C(=O)OC(C)C)ncc2[nH]c3ccc(NC(C)=S)cc3c12 | 158 to 160
15 | COC(=O)c1cccc(C=CC(=O)c2cc(OC)ccc2OC)c1 | 108 to 110
16 | CONC(=O)CC(C#Cc1ccccc1)c1ccc(OC)c(OC2CCCC2)c1 (racemic) | 111 to 114
17 | COCOc1ccc(C=C2CCCC(=Cc3ccc(OCOC)c(OC)c3)C2=O)cc1OC | 73 to 75
18 | CCc1nc2c(N)nc3cc(OCc4ccc(S(=O)(=O)NCCc5cc6ccccc6[nH]5)cc4)ccc3c2s1 | 100 to 101
19 | Oc1cc2c(cc1O)OCC(c1cccc(F)c1)C2 (stereo unspecified) | 121 to 123
20 | COCc1c(OCc2ccccc2)ccc2c1CCCC2=O | 55 to 56
21 | COc1cccc(CCc2cc(C(C)(C)C)c(O)c(C(C)(C)C)c2)c1NC(=O)NC1CCN(Cc2ccccc2)CC1 | 184 to 185
22 | CN(C(N)=O)c1ccc(C(O)(C(F)(F)F)C(F)(F)F)cc1 | 181 to 184

Row | SMILES | melting point [°C]
23 | CCOP(OCC)c1ccccc1P(c1cccc2ccccc12)c1cccc2ccccc12 | 94 to 95
24 | OCc1cncn1-c1ccccc1 | 81 to 84
25 | COC(=O)c1cccc2c(CCl)c(C)sc12 | 125 to 126
26 | Cn1nc(-c2c(F)cccc2Cl)nc1-c1ccc(CO)c(Cl)c1 | 111 to 113
27 | CC(=O)CCc1ccc(C(=O)Nc2ccc3cc(CN4CCCC4)cnc3c2C)cc1 | 106 to 108
28 | COC(=O)[C@H](CC1=CCC(N)(O)C=C1)NC(=O)c1ccccc1 (stereo partly specified) | 170
29 | CC1=C(C(=O)OC(C)C)C(c2cccc(Cl)c2)N(C(=O)Oc2ccc([N+](=O)[O-])cc2)CN1 (stereo unspecified) | 165 to 167
30 | COc1ccc2ccc(C(N)=O)c(OC(C)C)c2c1 | 172 to 174
31 | O=[N+]([O-])c1ccc2oc(CBr)cc2c1 | 96 to 98
32 | COC(=O)c1nccnc1Cl | 30
33 | CCCNC(=O)c1cccc(-c2nc(=O)c3ccccc3s2)n1 | 180 to 181
34 | Cc1ccc([N+](=O)[O-])cc1S(=O)(=O)N1CCOCC1 | 114 to 115
35 | CCCCCCCCCCCCCCCCCC(=O)c1ccc(C(=O)O)c(Cl)c1 | 96 to 102
36 | CCOC(=O)CCCN=c1sc2ccccc2s1 | 35 to 36
37 | CCCOC1CCC(=O)N1 (stereo unspecified) | 52 to 54
38 | CCOC(=O)NC(=S)Nc1ncc(C(F)(F)F)cc1F | 99 to 100
39 | COC(=O)c1c(N)[nH]c2ccccc12 | 136
40 | COC(=O)[C@H](Cc1ccc(N)cc1)NC(C)=O | 141
41 | Cn1nc(Oc2ccc([N+](=O)[O-])c([N+](=O)[O-])c2)c(Cl)c1C(F)(F)F | 139 to 140
42 | COc1ccccc1N1CCN(CCn2c(=O)c3cscc3n(CCC(=O)O)c2=O)CC1 | 186 to 188
43 | COc1ccc(CN2C(=O)C(CCO)Oc3ccccc32)cc1 (stereo unspecified) | 80 to 82
44 | N#Cc1cc(NC(=O)c2ccc3ccccc3c2)ccc1N1CCC(O)CC1 | 183 to 185

Row | SMILES | melting point [°C]
45 | N#Cc1ccsc1-c1ccc(CBr)cc1 | 80
46 | Cc1cc(OC2CCCC2)ccc1NC(=O)OC(C)(C)C | 75 to 77
47 | CCCCCCCNC(=O)N(C)c1ccc(C)c(-c2ccc(CCC(=O)O)cc2)c1 | 104
48 | Cc1ccc(-c2nc(O)c(C)s2)cc1 | 172 to 174
49 | CSc1nccc(C)c1NC(=O)CCCCCCCCSc1nc2ccccc2o1 | 91 to 92
50 | COC(=O)Nc1nc2cc(C3(c4ccccc4)OCC(C)(C)CO3)ccc2[nH]1 | 224
51 | CCOC(=O)Cc1ccc2c(c1)NC(NC(C)C)=NS2(=O)=O | 182 to 184
52 | CCCCCC(=O)Nc1ccc2nnc(C(=O)OCC)c(O)c2c1 | 265 to 266
53 | O=C(O)c1cccc(-c2ccc3c(c2)N(Cc2ccc(Cl)cc2Cl)CC3)c1 | 175 to 176
54 | CC(C)(C)OC(=O)Nc1cc(OC(C)(C)C)c(C#Cc2ccc(F)cc2)cc1N | 183
55 | CCCS(=O)(=O)Cc1cc2oc(S(N)(=O)=O)cc2cn1 | 167 to 169
56 | Fc1cccc(F)c1COc1cccnc1NC(=S)Nc1ccccc1 | 132 to 133
57 | COC(=S)NCc1cn(-c2ccc(N3CCC(=O)CC3)c(F)c2)nn1 | 145 to 147
58 | CC1C(=CC2C(C(=O)O)C2(C)C)C1(F)F (stereo unspecified) | 97.7
59 | COCCN(CCOC)C(=O)c1ccc(C(=O)N2CCN(c3ncccc3NC(C)C)CC2)cc1 | 82 to 83
60 | O=C1c2c(O)cccc2C(O)(c2cccc(C(F)(F)F)c2)c2cccc(O)c21 | 222 to 223
61 | O=C(O)Cc1ccc(Br)cc1F | 121 to 122
62 | N#Cc1cc(-c2ccco2)nc(N)n1 | 193 to 194
63 | O=C1c2ccccc2C(=O)N1CC1CCOC1 (stereo unspecified) | 114 to 118
64 | CCC(C)N1CC(=O)N(C(C)CC)CC1=O (stereo unspecified) | 95.5 to 97.5
65 | CCN(CC)CCn1c2ccccc2c(=NNC(N)=S)c2ccccc21 | 154 to 156
66 | NS(=O)(=O)c1cc2c(cc1Cl)C(=O)NC2=O | 121 to 125

Row | SMILES | melting point [°C]
67 | Nc1c([N+](=O)[O-])cc(Br)c2c1CN(Cc1ccc(C(F)(F)F)cc1)CC2 | 119 to 120
68 | N#Cc1cccc(C=Cc2ccc(Cl)cc2)n1 | 113 to 115
69 | CCCCCCCCCCOCC(O)CO (stereo unspecified) | 38.5 to 39
70 | CN1CCC(Sc2ccc3[nH]c(=O)n(C)c3c2)CC1 | 196 to 198
71 | Cc1cc(Cl)c2c(c1)C=C(C(=O)O)C(C(F)(F)F)O2 (stereo unspecified) | 226 to 227
72 | CC(C)(O)C(O)c1ccc(-c2ccc(C(CC3CCOCC3)c3ccc(S(C)(=O)=O)c(Cl)c3)[nH]2)nc1 (stereo unspecified) | 138 to 140
73 | COC(=O)Cc1cc(=O)[nH]c2ccccc12 | 209 to 210
74 | O=C1CCC(c2ccccc2)(c2ccccc2)[C@@H]2CN(C(=O)Cc3ccccc3N3CCOCC3)C[C@H]12 (racemic) | 167
75 | Cc1nc2sccn2c1C1=NNC(=O)OC1 | 294
76 | Cc1ccc([C@H]2CCCN2[S@@](=O)C(C)(C)C)cc1 | 62 to 64
77 | CCn1c(=O)n(CCOCCOC)c(=O)c2c1ncn2Cc1ccccc1 | 140
78 | O=C1OCC(CNC2CCCCC2)C1(c1ccccc1)c1ccccc1 (stereo unspecified) | 129 to 131
79 | CNC(=O)C(=N[C@@H](C)c1ccccc1)C(C)(C)C | 120
80 | COC(=O)C(C)(COS(C)(=O)=O)C(=O)c1ccc(Cl)cc1 (stereo unspecified) | 85 to 86
81 | CCOC(=O)C1=C(C=O)NC(CF)=C(C(=O)OCC)C1c1cccc([N+](=O)[O-])c1 (stereo unspecified) | 88 to 90
82 | O=C(Cn1c(-c2ccc(Br)cc2)nc2cccnc21)Nc1ccccn1 | 192 to 195
83 | O=[N+]([O-])c1c(NCCCO)cccc1NCCCO | 90
84 | O=c1ccc2cc(OCc3cn(-c4ccccc4Cl)nn3)ccc2o1 | 164 to 166
85 | COC(=O)C(=O)c1ccc(OCCOc2ccc(C)cc2)cc1 | 105 to 107
86 | CCOc1ccc([N+](=O)[O-])c(NC2Cc3ccccc3C2)c1 | 151
87 | CCOCc1nc2c(N)nc3cc(-c4ccc(F)nc4)cnc3c2n1CC(C)(C)O | 218 to 220
88 | O=[N+]([O-])c1cc(-c2cccnc2)ccc1O | > 300

Row | SMILES | melting point [°C]
89 | COc1ccc(S(=O)(=O)C(CC(=O)NO)c2ccccc2)cc1 (stereo unspecified) | 157 to 159
90 | CCc1cc(C(C)=O)ccc1N=C1SCC2(CCCC2)N1C1CCCC1 | 114 to 115
91 | N#CC(=CN1CCOCC1)C(C[N+](=O)[O-])c1cccc(Cl)c1Cl (stereo unspecified) | 74 to 77
92 | COc1ccc(C(=O)O)c(Sc2ccc(SC)cc2)c1 | 202 to 203
93 | C[C@H](CC(=O)c1ccc(C#N)cc1)C(=O)N1CCC(OCC(=O)OC(C)(C)C)CC1 | 142
94 | O=C(C1CCCCC1CO)N1CCCC1 (stereo unspecified) | 115
95 | C=C=Cn1c(C)c(C)c2cnnc(OCc3ccccc3)c21 | 77 to 79
96 | CCC=C(C)C(O)C(CC)CC (stereo unspecified) | 92 to 93
97 | Nc1nc2ccccc2n1-c1cccc(-n2c(N)nc3ccccc32)c1 | 270
98 | CC(=O)OC[C@@H]1O[C@H](n2c(NC(C)C)nc3c(Cl)cccc32)[C@@H](OC(C)=O)[C@H]1OC(C)=O | 225 to 227
99 | O=C1Nc2cnc(N3CCN(c4ccccn4)CC3)nc2S/C1=C/c1ccc([N+](=O)[O-])cc1 | 332 to 334
100 | CCCCn1c(N)cc(=O)n(CCCC)c1=O | 90.1 to 92.4
101 | CCCc1ccc2c(C(=O)O)ccc(OC)c2n1 | 214 to 217
102 | CN(Cc1cc2c(=O)c(C(=O)NCc3ccc(Cl)cc3)cn(C)c2o1)CC(O)c1ccoc1 (stereo unspecified) | 93 to 97
103 | O=c1oc2c(-c3ccccc3)cccc2c(O)c1-c1ccccc1 | 211
104 | O=C1CCC(O)(c2ccc(Cl)c(Cl)c2)CN1Cc1ccc(F)cc1 (stereo unspecified) | 146
105 | CCOC(=O)c1cc(SC(F)F)c(-c2ccc(Cl)cc2)[nH]1 | 113 to 117
106 | COc1cc2c(cc1C(F)(F)F)N(C(=O)Nc1ccc(Cl)c(-c3cccnc3)c1)CC2 | 210 to 213
